Reference: patent US4868208A, “Antifungal agent and method” (Merck & Co., Inc., priority 1988, dated 1989)

System: Cryptococcus neoformans
Experiment: Agar dilution assay (MIC) against an expanded panel of 84 Cryptococcus neoformans strains
Format: cell-based
Details: 84 Cryptococcus neoformans isolates, yeast nitrogen base dextrose agar, 0.008 to 16.0 μg/ml
Procedure: Such activity may be illustrated with test results against Cryptococcus neoformans employing yeast nitrogen base dextrose agar medium. In carrying out the assay, Compound Ia' was solubilized in 10 percent dimethyl sulfoxide (DMSO) supplemented with one drop of Tween 20. Twofold dilutions were made with sterile distilled water/10 percent DMSO to obtain final drug concentrations in the agar dilution assay plates ranging from 0.008 to 16.0 μg/ml against an expanded panel of 84 Cryptococcus neoformans strains.
The minimum inhibitory concentration against the expanded panel of 84 Cryptococcus neoformans isolates may be summarized as follows: […]

SMILES: COC(=O)C(C)CNC(=O)C(Cc1ccc(OC)c(Cl)c1)NC(=O)C=CCC(OC(=O)C(O)CC(C)C)C(C)C1OC1c1ccccc1 (stereo not drawn) [Compound Ia', 5-[[2-[[2-(methoxycarbonyl)propyl]amino]-1-[(3-chloro-4-methoxyphenyl)methyl]-2-oxoethyl]amino]-5-oxo-1-[1-(3-phenyloxiranyl)ethyl]-3-pentenyl 2-hydroxy-4-methylpentanoate]
- MIC50 (concentration at which 50% of the strains were inhibited): 8.0 µg/mL
- MIC90 (concentration at which 90% of the strains were inhibited): 8.0 µg/mL
- G-MIC (geometric means of MIC) (10 percent DMSO/Tween 20): > 6.11 µg/mL
